Measurements: patent publication US20210315893A1 (Galapagos NV, priority 2017, published 2021)

Assays:
S1PR2 = target: T1, S1PR2 (Homo sapiens, UniProt O95136); test: S1PR2 binding assay (competition with radioactively labeled S1P, SpA); conditions: membranes from stable cell line over expressing S1PR2, SpA beads; read-out: S1P2 EC50 (nM), S1PR2 binding EC50
T1 construct: expressed in transfected cells
In short: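 Competition with [3H]S1P for membranes from a stable S1PR2-overexpressing cell line, 20 μg/well, captured on PVT-WGA SPA beads, in 20 mM Tris pH 7.5, 10 mM MgCl2, 100 mM NaCl, 0.4% fatty-acid-free BSA, 1 mM Na3VO4. 2 h at room temperature, then centrifugation and scintillation counting.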

[1] = target: T2, human GPCR sphingosine 1-phosphate receptor 1 (Homo sapiens, UniProt P21453); test: S1PR1 selectivity Ca2+ flux assay (antagonist readout); type: cell-based; conditions: antagonist readout, CHO cells overexpressing human S1PR1 and Gq, S1P at EC80 (6 nM); read-out: S1P1 EC50 (nM), S1P1 antagonist EC50
T2 construct: host or cells: CHO
In short: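 CHO cells stably overexpressing human S1PR1, starved 1 h in 0.1% FAF BSA medium, then Fluo 8 dye-loaded. Compound added, then after 15 min at 37 °C, S1P-evoked Ca2+ flux recorded. Maximal signal/background ratio normalized to controls as % inhibition; IC50 from four-parameter logistic fit.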

HFL-1 cells [2] = test: IL8 assay in the presence of Human Serum Albumin; conditions: HFL1, read-out: HSA IL8 EC50
Method: To evaluate the influence of plasma protein binding of S1P as well as compound, the S1P induced IL-8 levelswereevaluatedin presence of Human Serum Albumin (HSA, equivalent to 40% human serum).
Human Fetal Lung cells (HFL-1) are seeded in 96 well plates in growth medium (F12K+10% heat inactivated FBS+1% Pen/strep). […] On day three, compounds are added (10 point serial dilution, 30 μM highest concentration, 1/3 dilution, 0.3% DMSO final) and plates are incubated for 1 h at 37° C., 5% CO2. Subsequently S1P at 5 μM final concentration is added and plates are incubated for 16 to 24 h at 37° C., 5% COafter which the supernatant was collected. IL-8 levels in the supernatant are determined with the IL-8 ELISA of R&D systems.

HFL-1 cells [3] = test: IL-8 production assay (S1P induced IL-8); type: cell-based; conditions: Homo sapiens, HFL1; S1P (1 μM) induced IL-8 in HFL-1 cells, starvation medium without HSA; read-out: IL8 EC50
In short: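 HFL-1 human fetal lung fibroblasts were starved in F12K/1% FBS, then given compound for 1 h (10-point, 1/3 dilution, 30 μM top, 0.3% DMSO final). S1P was added at 1 μM final for 16–24 h at 37 °C, and secreted IL-8 in supernatant quantified by ELISA.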

[4] = target: T3, human GPCR sphingosine 1-phosphate receptor 2 (Homo sapiens, UniProt O95136); test: S1PR2 antagonist Ca2+ flux assay; type: cell-based; conditions: antagonist mode, CHO-S1PR2 cells, S1P at EC80, Ca2+ fluorescence; read-out: S1P2 EC50 (nM), S1P2 antagonist EC50
T3 construct: host or cells: CHO
In short: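 CHO cells stably expressing human S1PR2, serum-starved 1 h, Fluo8-loaded; compound-evoked Ca2+ fluorescence read 3 min (agonist mode), then after 15 min S1P at EC80 added and read 3 min (antagonist mode). Max/baseline fluorescence ratios normalised to vehicle and S1P EC100 or EC50 controls; EC50 derived.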

[5] = target: T4, human GPCR sphingosine 1-phosphate receptor 5 (Homo sapiens, UniProt Q9H228); test: S1PR5 selectivity Ca2+ flux assay (antagonist readout); type: cell-based; conditions: CHO cells overexpressing human S1PR5 and Gq, agonist at EC80 (20 nM), read-out: S1P5 EC50 (nM), S1P5 antagonist EC50
T4 construct: host or cells: CHO
In short: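 CHO cells stably coexpressing human S1PR5 and Gq were serum-starved, Fluo 8-loaded and preincubated 15 min at 37° C with compound. They were then stimulated at EC80 with an S1PR5-specific agonist, and calcium fluorescence was recorded for 3 min. Peak/baseline ratios were normalized to controls and fitted to a four-parameter IC50 equation.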

T1 sequence (O95136 whole entry): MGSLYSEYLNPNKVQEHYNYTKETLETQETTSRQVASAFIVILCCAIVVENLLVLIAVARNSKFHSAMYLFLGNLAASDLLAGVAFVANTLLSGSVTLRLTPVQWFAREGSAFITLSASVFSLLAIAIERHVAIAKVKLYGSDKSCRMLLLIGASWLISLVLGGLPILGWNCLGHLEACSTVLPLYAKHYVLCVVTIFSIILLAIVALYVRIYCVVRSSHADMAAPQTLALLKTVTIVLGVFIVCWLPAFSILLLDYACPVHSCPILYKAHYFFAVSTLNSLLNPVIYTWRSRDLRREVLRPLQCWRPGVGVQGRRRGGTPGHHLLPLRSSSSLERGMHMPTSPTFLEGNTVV
T3 sequence (O95136 whole entry): as above
T2 sequence (P21453 whole entry): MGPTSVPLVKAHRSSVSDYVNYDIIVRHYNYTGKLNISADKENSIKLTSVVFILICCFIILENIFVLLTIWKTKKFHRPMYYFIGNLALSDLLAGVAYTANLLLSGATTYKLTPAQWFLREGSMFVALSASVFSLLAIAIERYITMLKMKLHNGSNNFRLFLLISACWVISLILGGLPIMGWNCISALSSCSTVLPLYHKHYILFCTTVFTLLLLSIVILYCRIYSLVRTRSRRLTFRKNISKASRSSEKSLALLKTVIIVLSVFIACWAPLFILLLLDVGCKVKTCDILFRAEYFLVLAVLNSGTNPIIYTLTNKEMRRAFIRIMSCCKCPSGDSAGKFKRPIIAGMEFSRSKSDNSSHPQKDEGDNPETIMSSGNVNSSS
T4 sequence (Q9H228 whole entry): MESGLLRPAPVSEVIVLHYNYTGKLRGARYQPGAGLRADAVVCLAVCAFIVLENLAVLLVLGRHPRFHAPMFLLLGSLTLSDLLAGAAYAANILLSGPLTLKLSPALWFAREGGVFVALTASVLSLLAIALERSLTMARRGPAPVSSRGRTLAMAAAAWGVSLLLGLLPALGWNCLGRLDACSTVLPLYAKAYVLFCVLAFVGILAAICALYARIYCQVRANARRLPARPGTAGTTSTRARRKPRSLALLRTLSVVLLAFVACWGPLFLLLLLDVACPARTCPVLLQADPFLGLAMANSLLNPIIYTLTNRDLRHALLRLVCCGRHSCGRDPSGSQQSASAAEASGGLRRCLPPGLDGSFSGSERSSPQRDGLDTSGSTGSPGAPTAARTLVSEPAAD

Compound | EC50 (S1PR2) | EC50 [1] | EC50 (HFL-1 cells [2]) | EC50 (HFL-1 cells [3]) | EC50 [4] | EC50 [5]
O=C(O)C1(n2nc(Cn3cc4cc(OCC5CC5)c(Cl)cc4n3)c3ccccc3c2=O)CC1 [Compound 95, 1-[4-[[6-chloro-5-(cyclopropylmethoxy)indazol-2-yl]methyl]-1-oxo-phthalazin-2-yl]cyclopropanecarboxylic acid] | 208 nM | ≥ 19800 nM | 1.83 µM | 0.0534 µM | 19.4 nM | 19800 nM
O=C(O)c1cn(Cc2cn3cc(OCC4CC4)c(Cl)cc3n2)c2ccccc2c1=O [Compound 84, 1-[[7-chloro-6-(cyclopropylmethoxy)imidazo[1,2-a]pyridin-2-yl]methyl]-4-oxo-quinoline-3-carboxylic acid] | 459 nM | ≥ 19800 nM | 2.46 µM | 0.198 µM | 41.9 nM | 19800 nM
O=C(O)Cn1nc(Cc2nc3cc(Cl)c(OCC4CC4)cc3[nH]2)c2c(c1=O)CCCC2 [Compound 117, 2-[4-[[5-chloro-6-(cyclopropylmethoxy)-1H-benzimidazol-2-yl]methyl]-1-oxo-5,6,7,8-tetrahydrophthalazin-2-yl]acetic acid] | 33.2 nM | 1540 nM | 0.00883 µM | 0.00096 µM | 8.18 nM | 13200 nM
CC(C(=O)O)n1nc(Cn2cc3cc(OCC4CC4)c(Cl)cc3n2)c2cc(C#N)ccc2c1=O (stereo not drawn) [Compound 92, 2-[4-[[6-chloro-5-(cyclopropylmethoxy)indazol-2-yl]methyl]-6-cyano-1-oxo-phthalazin-2-yl]propanoic acid] | 32.1 nM | 13200 nM | 0.544 µM | 0.00441 µM | 8.99 nM | 19800 nM
N#Cc1cc2[nH]c(Cn3nc(CC(=O)O)c(=O)c4ccccc43)nc2cc1OCC1CC1 [Compound 108, 2-[1-[[6-cyano-5-(cyclopropylmethoxy)-1H-benzimidazol-2-yl]methyl]-4-oxo-cinnolin-3-yl]acetic acid] | 9.21 nM | 3080 nM | 0.00589 µM | 0.00154 µM | 2.94 nM | 19800 nM
CCOc1cc2[nH]n(Cc3nn(CC(=O)O)c(=O)c4ccccc34)c(=O)c2cc1Cl [Compound 128, 2-[4-[(5-chloro-6-ethoxy-3-oxo-1H-indazol-2-yl)methyl]-1-oxo-phthalazin-2-yl]acetic acid] | 1970 nM | ≥ 19800 nM | 0.701 µM | 0.0308 µM | 28.3 nM | 19800 nM
O=C(Cn1nc(Cc2nc3cc(Cl)c(OCC4CC4)c(F)c3[nH]2)c2ccccc2c1=O)N1CCOCC1 [Compound 149, 4-[[5-chloro-6-(cyclopropylmethoxy)-7-fluoro-1H-benzimidazol-2-yl]methyl]-2-(2-morpholino-2-oxo-ethyl)phthalazin-1-one] | 142 nM | ≥ 19800 nM | 0.381 µM | 0.211 µM | 30.4 nM | 19800 nM
O=c1c2ccccc2c(Cc2nc3cc(Cl)c(OC(F)(F)F)cc3[nH]2)nn1CC1CCNCC1 [Compound 56, 4-[[6-chloro-5-(trifluoromethoxy)-1H-benzimidazol-2-yl]methyl]-2-(4-piperidylmethyl)phthalazin-1-one] | 722 nM | ≥ 19800 nM | 2.93 µM | 3.33 µM | 839 nM | 19800 nM
O=C(O)Cn1nc(Cc2nc3cc(Cl)c(OCC(F)F)cc3[nH]2)c2c(c1=O)CCCC2 [Compound 119, 2-[4-[[5-chloro-6-(2,2-difluoroethoxy)-1H-benzimidazol-2-yl]methyl]-1-oxo-5,6,7,8-tetrahydrophthalazin-2-yl]acetic acid] | 23.3 nM | ≥ 19800 nM | 0.189 µM | 0.0113 µM | 6.58 nM | 19800 nM
N#Cc1cc2nc(Cc3nn(C4CC4)c(=O)c4ccccc34)[nH]c2cc1OCC1CC1 [Compound 42, 6-(cyclopropylmethoxy)-2-[(3-cyclopropyl-4-oxo-phthalazin-1-yl)methyl]-1H-benzimidazole-5-carbonitrile] | 20.6 nM | ≥ 19800 nM | 0.443 µM | 0.0309 µM | 19.7 nM | 19800 nM
N#Cc1cc2[nH]c(Cc3nn(CC4CCCN4CC(=O)O)c(=O)c4ccccc34)nc2cc1OCC(F)F (stereo not drawn) [Compound 70, 2-[2-[[4-[[6-cyano-5-(2,2-difluoroethoxy)-1H-benzimidazol-2-yl]methyl]-1-oxo-phthalazin-2-yl]methyl]pyrrolidin-1-yl]acetic acid] | 2100 nM | ≥ 19800 nM | 0.443 µM | 0.251 µM | 836 nM | 19800 nM
CC(C(=O)O)n1nc(Cn2cc3cc(OCC4CC4)c(Cl)cc3n2)c2c(c1=O)CCCC2 (stereo not drawn) [Compound 93, 2-[4-[[6-chloro-5-(cyclopropylmethoxy)indazol-2-yl]methyl]-1-oxo-5,6,7,8-tetrahydrophthalazin-2-yl]propanoic acid] | 22.4 nM | ≥ 19800 nM | 0.0228 µM | 0.00304 µM | 8.99 nM | 19800 nM

Now from value to compound:

EC50 (S1PR2) | EC50 [1] | EC50 (HFL-1 cells [2]) | EC50 (HFL-1 cells [3]) | EC50 [4] | EC50 [5] | Compound
82.1 nM | ≥ 19800 nM | 0.0842 µM | 0.0169 µM | 14.5 nM | 19800 nM | CC1(C)CN(C(=O)Cn2nc(Cc3nc4cc(OCC(F)F)c(C#N)cc4[nH]3)c3ccccc3c2=O)CCO1 [Compound 227, 6-(2,2-difluoroethoxy)-2-[[3-[2-(2,2-dimethylmorpholin-4-yl)-2-oxo-ethyl]-4-oxo-phthalazin-1-yl]methyl]-3H-benzimidazole-5-carbonitrile]
375 nM | ≥ 19800 nM | 0.4 µM | 0.0487 µM | 19.9 nM | 19800 nM | O=C(Cn1cc(Cc2nc3cc(OCC(F)F)c(Cl)cc3[nH]2)c2ccccc2c1=O)N1CCOCC1 [Compound 169, 4-[6-Chloro-5-(2,2-difluoro-ethoxy)-1H-benzoimidazol-2-ylmethyl]-2-(2-morpholin-4-yl-2-oxo-ethyl)-2H-isoquinolin-1-one]
44.7 nM | ≥ 19800 nM | 0.016 µM | 0.0122 µM | 13 nM | 19800 nM | N#Cc1cc2[nH]c(Cc3nn(CC(=O)N4CCC(O)(C(F)(F)F)C4)c(=O)c4ccccc34)nc2cc1OCC(F)F (stereo not drawn) [Compound 216, 6-(2,2-difluoroethoxy)-2-[[3-[2-[3-hydroxy-3-(trifluoromethyl)pyrrolidin-1-yl]-2-oxo-ethyl]-4-oxo-phthalazin-1-yl]methyl]-3H-benzimidazole-5-carbonitrile]
124 nM | ≥ 19800 nM | 0.0334 µM | 0.00704 µM | 34.6 nM | 19800 nM | N#Cc1cc2[nH]c(Cc3nn(CC(=O)N4CCC(O)(C5CC5)C4)c(=O)c4ccccc34)nc2cc1OCC(F)F (stereo not drawn) [Compound 214, 2-[[3-[2-(3-cyclopropyl-3-hydroxy-pyrrolidin-1-yl)-2-oxo-ethyl]-4-oxo-phthalazin-1-yl]methyl]-6-(2,2-difluoroethoxy)-3H-benzimidazole-5-carbonitrile]
378 nM | ≥ 19800 nM | 0.343 µM | 0.0242 µM | 5.57 nM | 19800 nM | CC(C(=O)NS(C)(=O)=O)c1nn(Cc2cn3cc(OCC4CC4)c(Cl)cc3n2)c2ccccc2c1=O (stereo not drawn) [compound 15, 2-[1-[[7-chloro-6-(cyclopropyl-methoxy)imidazo-[1,2-a]pyridin-2-yl]methyl]-4-oxo-cinnolin-3-yl]-N-methylsulfonyl-propanamide]
142 nM | ≥ 19800 nM | 0.159 µM | 0.0465 µM | 39.7 nM | 19800 nM | N#Cc1cc2[nH]c(Cc3nn(CC(=O)N4C[C@H](O)[C@@H](O)C4)c(=O)c4ccccc34)nc2cc1OCC(F)F [Compound 211, 6-(2,2-difluoroethoxy)-2-[[3-[2-[(3S,4S)-3,4-dihydroxypyrrolidin-1-yl]-2-oxo-ethyl]-4-oxo-phthalazin-1-yl]methyl]-3H-benzimidazole-5-carbonitrile]
